Results: patent publication US4526989A, “1,4-Bis (substituted-amino)-5,8-dihydroxy-anthraquinones and leuco bases thereof” (priority 1979, dated 1985)

Assays:
[1] = test system: lymphocytic leukemia P388; assay: Lymphocytic leukemia P388 test (intraperitoneal administration); assay type: in vivo, DBA/2 mice; conditions: days 1, 5 and 9; for response vs control in vivo at 0.19 mg/kg / response vs control in vivo at 0.04 mg/kg / response vs control in vivo at 0.09 mg/kg / response vs control in vivo at 0.39 mg/kg / response vs control in vivo at 0.78 mg/kg / response vs control in vivo at 1.5 mg/kg / response vs control in vivo at 3.1 mg/kg / response vs control in vivo at 6.2 mg/kg / response vs control in vivo at 12.5 mg/kg / response vs control in vivo at 25 mg/kg / response vs control in vivo at 12 mg/kg / response vs control in vivo at 50 mg/kg / response vs control in vivo at 100 mg/kg / response vs control in vivo at 200 mg/kg: Mus musculus, P388, ip, efficacy ≥125%, read-out: T/C × 100
Method: The animals used are DBA/2 mice all of one sex, weighing a minimum of 17 g. and all within a 3 gram weight range. There are 5 or 6 animals per test group. The tumor transplant is by intraperitoneal injection of 0.1 ml. of dilute ascitic fluid containing 10^6 cells of lymphocytic leukemia P388. The test compounds are administered intraperitoneally on days one, 5 and 9 (relative to tumor inoculation) at various doses. The animals are weighed and survivors are recorded on a regular basis for 30 days. The median survival time and the ratio of survival time for treated (T)/control (C) animals are calculated.

melanotic melanoma B16 = assay: Melanotic Melanoma B16 test; assay type: in vivo, C57BC/6 mice; conditions: days 1 through 9
Method: The animals used are C57BC/6 mice, all of the same sex, weighing a minimum of 17 g. and all within a 3-g. weight range. There are normally 10 animals per test group. A one-gram portion of melanotic melanoma B16 tumor is homogenized in 10 ml. of cold balanced salt solution and a 0.5-ml. aliquot of the homogenate is implanted intraperitoneally into each of the test mice. The test compounds are administered intraperitoneally on days one through 9 (relative to tumor inoculation) at various doses. The animals are weighed and survivors are recorded on a regular basis for 60 days. The median survival time and the ratio of survival time for treated (T)/control (C) animals are calculated. […] The criterion for efficacy is T/C×100≥125%.

[2] = Mus musculus, ip, 1.5 mg./kg. i.p., efficacy ≥125%, read-out: T/C × 100
[3] = Mus musculus, ip, 12.5 mg./kg. i.p., efficacy ≥125%, read-out: T/C × 100
[4] = Mus musculus, ip, 6 mg./kg. i.p., efficacy ≥125%, read-out: T/C × 100
[5] = Mus musculus, ip, 25 mg./kg. i.p., efficacy ≥125%, read-out: T/C × 100
[6] = Mus musculus, ip, 50 mg./kg. i.p., efficacy ≥125%, read-out: T/C × 100
[7] = Mus musculus, ip, 3 mg./kg. i.p., efficacy ≥125%, read-out: T/C × 100

CNCCNc1ccc(NCCNC)c2c1C(=O)c1c(O)ccc(O)c1C2=O.Cl.Cl [1,4-Bis[2-(methylamino)ethylamino]-5,8-dihydroxyanthraquinone dihydrochloride]
Median Survival Time ([1]; 0.04 mg./kg. i.p.): 17.0 days
Median Survival Time ([1]; 0.09 mg./kg. i.p.): 18.0 days
Median Survival Time ([1]; 0.19 mg./kg. i.p.): 18.5 days
Median Survival Time ([1]; 0.39 mg./kg. i.p.): 19.5 days
Median Survival Time ([1]; 0.78 mg./kg. i.p.): 18.5 days
Median Survival Time ([1]; 1.5 mg./kg. i.p.): 22.5 days
Median Survival Time ([1]; 3.1 mg./kg. i.p.): 22.0 days
Median Survival Time ([1]; 6.2 mg./kg. i.p.): 20.0 days
Median Survival Time ([1]; 12.5 mg./kg. i.p.): 16.0 days
Median Survival Time ([1]; 25 mg./kg. i.p.): 9.0 days
response vs control in vivo at 0.19 mg/kg ([1]; 0.19 mg./kg. i.p.): 176%
response vs control in vivo at 0.04 mg/kg ([1]; 0.04 mg./kg. i.p.): 162%
response vs control in vivo at 0.09 mg/kg ([1]; 0.09 mg./kg. i.p.): 171%
response vs control in vivo at 0.39 mg/kg ([1]; 0.39 mg./kg. i.p.): 186%
response vs control in vivo at 0.78 mg/kg ([1]; 0.78 mg./kg. i.p.): 176%
response vs control in vivo at 1.5 mg/kg ([1]; 1.5 mg./kg. i.p.): 214%
response vs control in vivo at 3.1 mg/kg ([1]; 3.1 mg./kg. i.p.): 210%
response vs control in vivo at 6.2 mg/kg ([1]; 6.2 mg./kg. i.p.): 190%
response vs control in vivo at 12.5 mg/kg ([1]; 12.5 mg./kg. i.p.): 152%
response vs control in vivo at 25 mg/kg ([1]; 25 mg./kg. i.p.): 86%
Median Survival Time (melanotic melanoma B16; 0.19 mg./kg. i.p.): 29.5 days
Median Survival Time (melanotic melanoma B16; 0.39 mg./kg. i.p.): 25.0 days
Median Survival Time (melanotic melanoma B16; 0.78 mg./kg. i.p.): 35.0 days
Median Survival Time (melanotic melanoma B16; 1.5 mg./kg. i.p.): 33.0 days
Median Survival Time (melanotic melanoma B16; 3.1 mg./kg. i.p.): 49.0 days
Median Survival Time (melanotic melanoma B16; 6.2 mg./kg. i.p.): 26.5 days
Median Survival Time (melanotic melanoma B16; 12.5 mg./kg. i.p.): 11.5 days
response vs control in vivo at 0.19 mg/kg (melanotic melanoma B16; Mus musculus, ip, 0.19 mg./kg. i.p., efficacy ≥125%, read-out: T/C × 100): 151%
response vs control in vivo at 0.39 mg/kg (melanotic melanoma B16; Mus musculus, ip, 0.39 mg./kg. i.p., efficacy ≥125%, read-out: T/C × 100): 128%
response vs control in vivo at 0.78 mg/kg (melanotic melanoma B16; Mus musculus, ip, 0.78 mg./kg. i.p., efficacy ≥125%, read-out: T/C × 100): 179%
response vs control in vivo at 1.5 mg/kg (melanotic melanoma B16; [2]): 169%
response vs control in vivo at 3.1 mg/kg (melanotic melanoma B16; Mus musculus, ip, 3.1 mg./kg. i.p., efficacy ≥125%, read-out: T/C × 100): 251%
response vs control in vivo at 6.2 mg/kg (melanotic melanoma B16; Mus musculus, ip, 6.2 mg./kg. i.p., efficacy ≥125%, read-out: T/C × 100): 136%
response vs control in vivo at 12.5 mg/kg (melanotic melanoma B16; [3]): 59%

O=C1c2c(O)ccc(O)c2C(=O)c2c(NCCN3CCCC3)ccc(NCCN3CCCC3)c21 [1,4-Bis[2-(1-pyrrolidinyl)ethylamino]-5,8-dihydroxyanthraquinone]
Median Survival Time ([1]; 12 mg./kg. i.p.): 18.0 days
Median Survival Time ([1]; 25 mg./kg. i.p.): 21.0 days
Median Survival Time ([1]; 50 mg./kg. i.p.): 23.0 days
Median Survival Time ([1]; 100 mg./kg. i.p.): 24.0 days
response vs control in vivo at 12 mg/kg ([1]; 12 mg./kg. i.p.): 164%
response vs control in vivo at 25 mg/kg ([1]; 25 mg./kg. i.p.): 191%
response vs control in vivo at 50 mg/kg ([1]; 50 mg./kg. i.p.): 209%
response vs control in vivo at 100 mg/kg ([1]; 100 mg./kg. i.p.): 218%
Median Survival Time (melanotic melanoma B16; 6 mg./kg. i.p.): 22.0 days
Median Survival Time (melanotic melanoma B16; 12 mg./kg. i.p.): 22.0 days
Median Survival Time (melanotic melanoma B16; 25 mg./kg. i.p.): 24.5 days
response vs control in vivo at 6 mg/kg (melanotic melanoma B16; [4]): 137%
response vs control in vivo at 12 mg/kg (melanotic melanoma B16; Mus musculus, ip, 12 mg./kg. i.p., efficacy ≥125%, read-out: T/C × 100): 137%
response vs control in vivo at 25 mg/kg (melanotic melanoma B16; [5]): 153%

CCN(CC)CCNc1ccc(NCCN(CC)CC)c2c1C(=O)c1c(O)ccc(O)c1C2=O [1,4-Bis[(2-diethylaminoethyl)amino]-5,8-dihydroxyanthraquinone]
Median Survival Time ([1]; 12 mg./kg. i.p.): 12.0 days
Median Survival Time ([1]; 25 mg./kg. i.p.): 16.0 days
Median Survival Time ([1]; 50 mg./kg. i.p.): 15.0 days
Median Survival Time ([1]; 100 mg./kg. i.p.): 18.0 days
Median Survival Time ([1]; 200 mg./kg. i.p.): 20.0 days
response vs control in vivo at 12 mg/kg ([1]; 12 mg./kg. i.p.): 126%
response vs control in vivo at 25 mg/kg ([1]; 25 mg./kg. i.p.): 168%
response vs control in vivo at 50 mg/kg ([1]; 50 mg./kg. i.p.): 158%
response vs control in vivo at 100 mg/kg ([1]; 100 mg./kg. i.p.): 189%
response vs control in vivo at 200 mg/kg ([1]; 200 mg./kg. i.p.): 210%
Median Survival Time (melanotic melanoma B16; 50 mg./kg. i.p.): 20.5 days
response vs control in vivo at 50 mg/kg (melanotic melanoma B16; [6]): 125%

O=C1C2=C(NCCNCCO)CCC(NCCNCCO)=C2C(=O)c2c(O)ccc(O)c21 [Leuco-1,4-bis[2-(2-hydroxyethylamino)ethylamino]-5,8-dihydroxyanthraquinone]
Median Survival Time ([1]; 0.04 mg./kg. i.p.): 18.5 days
Median Survival Time ([1]; 0.09 mg./kg. i.p.): 21.5 days
Median Survival Time ([1]; 0.19 mg./kg. i.p.): 21.5 days
Median Survival Time ([1]; 0.39 mg./kg. i.p.): 22.0 days
Median Survival Time ([1]; 0.78 mg./kg. i.p.): 28.0 days
Median Survival Time ([1]; 1.5 mg./kg. i.p.): > 30.0 days
Median Survival Time ([1]; 3.1 mg./kg. i.p.): 26.0 days
Median Survival Time ([1]; 6.2 mg./kg. i.p.): 23.0 days
Median Survival Time ([1]; 12.5 mg./kg. i.p.): 23.5 days
Median Survival Time ([1]; 25 mg./kg. i.p.): 12.0 days
response vs control in vivo at 0.19 mg/kg ([1]; 0.19 mg./kg. i.p.): 205%
response vs control in vivo at 0.04 mg/kg ([1]; 0.04 mg./kg. i.p.): 176%
response vs control in vivo at 0.09 mg/kg ([1]; 0.09 mg./kg. i.p.): 205%
response vs control in vivo at 0.39 mg/kg ([1]; 0.39 mg./kg. i.p.): 209%
response vs control in vivo at 0.78 mg/kg ([1]; 0.78 mg./kg. i.p.): 267%
response vs control in vivo at 1.5 mg/kg ([1]; 1.5 mg./kg. i.p.): > 286%
response vs control in vivo at 3.1 mg/kg ([1]; 3.1 mg./kg. i.p.): 248%
response vs control in vivo at 6.2 mg/kg ([1]; 6.2 mg./kg. i.p.): 219%
response vs control in vivo at 12.5 mg/kg ([1]; 12.5 mg./kg. i.p.): 224%
response vs control in vivo at 25 mg/kg ([1]; 25 mg./kg. i.p.): 114%
Median Survival Time (melanotic melanoma B16; 0.37 mg./kg. i.p.): 22.0 days
Median Survival Time (melanotic melanoma B16; 0.75 mg./kg. i.p.): 28.5 days
Median Survival Time (melanotic melanoma B16; 1.5 mg./kg. i.p.): 30.0 days
Median Survival Time (melanotic melanoma B16; 3 mg./kg. i.p.): 20.5 days
Median Survival Time (melanotic melanoma B16; 6 mg./kg. i.p.): 9.5 days
response vs control in vivo at 0.37 mg/kg (melanotic melanoma B16; Mus musculus, ip, 0.37 mg./kg. i.p., efficacy ≥125%, read-out: T/C × 100): 137%
response vs control in vivo at 0.75 mg/kg (melanotic melanoma B16; Mus musculus, ip, 0.75 mg./kg. i.p., efficacy ≥125%, read-out: T/C × 100): 178%
response vs control in vivo at 1.5 mg/kg (melanotic melanoma B16; [2]): 187%
response vs control in vivo at 3 mg/kg (melanotic melanoma B16; [7]): 128%
response vs control in vivo at 6 mg/kg (melanotic melanoma B16; [4]): 59%

O=C1C2=C(NCCN3CCNCC3)CCC(NCCN3CCNCC3)=C2C(=O)c2c(O)ccc(O)c21 [Leuco-1,4-bis[2-(1-piperazinyl)ethylamino]-5,8-dihydroxyanthraquinone]
Median Survival Time ([1]; 12.5 mg./kg. i.p.): 14.0 days
Median Survival Time ([1]; 25 mg./kg. i.p.): 15.0 days
Median Survival Time ([1]; 50 mg./kg. i.p.): 16.0 days
Median Survival Time ([1]; 100 mg./kg. i.p.): 21.0 days
Median Survival Time ([1]; 200 mg./kg. i.p.): 7.0 days
response vs control in vivo at 12.5 mg/kg ([1]; 12.5 mg./kg. i.p.): 156%
response vs control in vivo at 25 mg/kg ([1]; 25 mg./kg. i.p.): 167%
response vs control in vivo at 50 mg/kg ([1]; 50 mg./kg. i.p.): 178%
response vs control in vivo at 100 mg/kg ([1]; 100 mg./kg. i.p.): 233%
response vs control in vivo at 200 mg/kg ([1]; 200 mg./kg. i.p.): 78%
Median Survival Time (melanotic melanoma B16; 3 mg./kg. i.p.): 20.5 days
Median Survival Time (melanotic melanoma B16; 6 mg./kg. i.p.): 22.0 days
Median Survival Time (melanotic melanoma B16; 12.5 mg./kg. i.p.): 26.0 days
Median Survival Time (melanotic melanoma B16; 25 mg./kg. i.p.): 30.5 days
Median Survival Time (melanotic melanoma B16; 50 mg./kg. i.p.): 34.5 days
response vs control in vivo at 3 mg/kg (melanotic melanoma B16; [7]): 121%
response vs control in vivo at 6 mg/kg (melanotic melanoma B16; [4]): 129%
response vs control in vivo at 12.5 mg/kg (melanotic melanoma B16; [3]): 153%
response vs control in vivo at 25 mg/kg (melanotic melanoma B16; [5]): 179%
response vs control in vivo at 50 mg/kg (melanotic melanoma B16; [6]): 203%
